# Values of other authors, collected in US20100120780A1, “TREATMENTS FOR PREMATURE EJACULATION IN HUMANS” (priority 2007, published 2010).
# Structures can show the parent of a compound that is named as a salt.
# Experiments:
# [1] = 0.2M sodium chloride
# [2] = for accumulation: multiple dose treatment with tramadol
# μ-opiate receptors = μ-opiate receptors (Homo sapiens, UniProt P35372)
# [3] = rats
# [4] = oral administration, Viagra formulation
# [5] = biological target: phosphodiesterase type 5 (PDE5) (Homo sapiens, UniProt O76074); conditions: PDE5 vs PDE6
# Sequence of μ-opiate receptors (P35372 whole entry): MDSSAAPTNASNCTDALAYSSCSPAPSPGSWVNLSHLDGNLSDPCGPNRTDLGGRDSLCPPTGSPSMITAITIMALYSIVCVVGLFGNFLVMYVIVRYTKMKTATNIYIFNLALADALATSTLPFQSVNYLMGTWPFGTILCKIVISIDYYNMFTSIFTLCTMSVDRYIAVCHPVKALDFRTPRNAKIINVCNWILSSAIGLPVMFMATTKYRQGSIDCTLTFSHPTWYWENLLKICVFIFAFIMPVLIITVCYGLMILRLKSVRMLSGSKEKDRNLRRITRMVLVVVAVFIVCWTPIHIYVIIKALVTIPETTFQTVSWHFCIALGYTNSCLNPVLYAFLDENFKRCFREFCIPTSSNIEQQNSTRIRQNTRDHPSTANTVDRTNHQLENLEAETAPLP
compound,measurement,setting,value
"COc1ccc(C(CN(C)C)C2(O)CCCCC2)cc1 (racemic) [Venlafaxine hydrochloride, (R/S)-1-[2-(dimethylamino)-1-(4-methoxyphenyl)ethyl]cyclohexanol]",octanol:water partition coefficient,[1],0.43
"COc1cccc(C2(O)CCCCC2CN(C)C)c1 (racemic) [tramadol, (+/−)-trans (RR,SS)-2-[(di-methylamino)methyl]-1-(3-methoxyphenyl)cyclohexanol]",accumulation,[2],approximately 2 fold
same,time to peak serum concentrations,[2]; oral administration,≤ 2 h
same,duration of the analgesic effect,single oral dose of tramadol 100 mg,about 6 hours
same,"affinity for μ-opiate receptors, fold less than codeine",μ-opiate receptors; relative to codeine,10 fold
same,"affinity for μ-opiate receptors, fold less than d-propoxyphene",μ-opiate receptors; relative to d-propoxyphene,100 fold
same,affinity for μ-opiate receptors compared to dextromethorphan,μ-opiate receptors; relative to dextromethorphan,equivalent
same,"affinity for μ-opiate receptors, fold less than morphine",μ-opiate receptors; relative to morphine,"6,000 fold"
"CN(C)C[C@H]1CCCC[C@]1(O)c1cccc(O)c1 [M1 derivative, O-desmethyltramadol]",accumulation,[2],approximately 2 fold
same,analgesic potency relative to the parent drug,relative to tramadol,at least twice
"COc1cc(CNC(=O)CCCCC=CC(C)C)ccc1O [capsaicin, 8-methyl-N-vanillyl-6-nonenamide]","time to distribution to the brain, spinal cord, liver and blood",[3]; intravenous administration,≤ 20 min
same,absorption in the jejunum,"[3]; oral dosing, after 3 hours",85%
"CCCc1nn(C)c2c(=O)[nH]c(-c3cc(S(=O)(=O)N4CCN(C)CC4)ccc3OCC)nc12 [sildenafil, 1-[[3-(6,7-dihydro-1-methyl-7-oxo-3-propyl-1H-pyrazolo[4,3-d]pyrimidin-5-yl)-4-ethoxyphenyl]sulfonyl]-4-methyl piperazine]",absolute bioavailability,[4],about 40%
same,potency for PDE5 compared to PDE6,[5],about 10 fold
